Measurements reported in ChEMBL document CHEMBL1201862, “PubChem BioAssay data set” (2004).
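1) Cells in 96-well plates. 2) Compound, 48 h, 5 concentrations. 3) Linear interpolation between surrounding doses. 4) Unreached endpoint = highest concentration. GI50 = concentration required for 50% inhibition of growth.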 Active and inactive are the calls of the source. Cut-off read from the data, not from the text of the source: active = GI50 up to about 1.1 µM and inactive = higher.

Tests used:
Assay in all cases: DTP human tumour cell line panel, 48 h
[1] = system: UACC-257
[2] = system: HL-60
[3] = system: SNB-75
[4] = system: OVCAR-5
[5] = system: MDA-N
[6] = system: UACC-62
[7] = system: A549
[8] = system: HCT-15
[9] = system: HOP-92
[10] = system: CAKI-1
[11] = system: RXF 393
[12] = system: SK-MEL-5
[13] = system: KM12
[14] = system: SW-620
[15] = system: SN12C
[16] = system: MOLT-4
[17] = system: NCI/ADR-RES
[18] = system: HT-29
[19] = system: OVCAR-8
[20] = system: UO-31
[21] = system: SK-MEL-28
[22] = system: NCI-H23
[23] = system: MDA-MB-435
[24] = system: EKVX
[25] = system: NCI-H460
[26] = system: SK-OV-3
[27] = system: SR
[28] = system: 786-0
[29] = system: BT-549
[30] = system: COLO 205
[31] = system: ACHN
[32] = system: RPMI-8226
[33] = system: TK-10
[34] = system: DU-145
[35] = system: T47D
[36] = system: OVCAR-4
[37] = system: MDA-MB-231
[38] = system: K562
[39] = system: NCI-H226
[40] = system: OVCAR-3
[41] = system: A498
[42] = system: U-251
[43] = system: SK-MEL-2
[44] = system: SNB-19
[45] = system: LOX IMVI
[46] = system: CCRF-CEM
[47] = system: PC-3
[48] = system: Hs-578T
[49] = system: SF-268
[50] = system: MCF7
[51] = system: IGROV-1
[52] = system: HCT-116
[53] = system: HCC 2998
[54] = system: M14
[55] = system: HOP-62
[56] = system: SF-295
[57] = system: SF-539
[58] = system: Malme-3M
[59] = system: NCI-H522

C=C[C@H]1CN2CCc3c([nH]c4c([C@@H]5CCCN5C)c(O)ccc34)[C@@H]2C[C@@H]1C[C@H]1c2[nH]c3ccccc3c2CCN1C
GI50 [1]: 3.18 µM (inactive) | GI50 [2]: 0.409 µM (active) | GI50 [3]: 0.813 µM (active) | GI50 [4]: 1.85 µM (inactive) | GI50 [5]: 0.49 µM (active) | GI50 [6]: 1.68 µM (inactive) | GI50 [7]: 0.764 µM (active) | GI50 [8]: 1.02 µM | GI50 [9]: 1.19 µM (inactive) | GI50 [10]: 1.61 µM (inactive) | GI50 [11]: 0.215 µM (active) | GI50 [12]: 1.66 µM (inactive) | GI50 [13]: 1.41 µM (inactive) | GI50 [14]: 1.23 µM (inactive) | GI50 [15]: 1.54 µM (inactive) | GI50 [16]: 0.316 µM (active) | GI50 [17]: 1.61 µM (inactive) | GI50 [18]: 1.4 µM (inactive) | GI50 [19]: 1.69 µM (inactive) | GI50 [20]: 1.08 µM (active) | GI50 [21]: 1.55 µM (inactive) | GI50 [22]: 1.85 µM (inactive) | GI50 [23]: 1.48 µM (inactive) | GI50 [24]: 1.58 µM (inactive) | GI50 [25]: 1.49 µM (inactive) | GI50 [26]: 1.62 µM (inactive) | GI50 [27]: 0.253 µM (active) | GI50 [28]: 0.437 µM (active) | GI50 [29]: 1.75 µM (inactive) | GI50 [30]: 1.26 µM (inactive) | GI50 [31]: 1.92 µM (inactive) | GI50 [32]: 0.35 µM (active) | GI50 [33]: 1.59 µM (inactive) | GI50 [34]: 1.48 µM (inactive) | GI50 [35]: 1.48 µM (inactive) | GI50 [36]: 1.42 µM (inactive) | GI50 [37]: 1.63 µM (inactive) | GI50 [38]: 0.255 µM (active) | GI50 [39]: 1.67 µM (inactive) | GI50 [40]: 1.36 µM (inactive) | GI50 [41]: 1.63 µM (inactive) | GI50 [42]: 1.49 µM (inactive) | GI50 [43]: 1.91 µM (inactive) | GI50 [44]: 1.3 µM (inactive) | GI50 [45]: 0.179 µM (active) | GI50 [46]: 0.188 µM (active) | GI50 [47]: 1.41 µM (inactive) | GI50 [48]: 1.52 µM (inactive) | GI50 [49]: 1.48 µM (inactive) | GI50 [50]: 1.75 µM (inactive) | GI50 [51]: 1.31 µM (inactive) | GI50 [52]: 0.239 µM (active) | GI50 [53]: 0.177 µM (active) | GI50 [54]: 0.307 µM (active) | GI50 [55]: 1.31 µM (inactive) | GI50 [56]: 1.01 µM (active) | GI50 [57]: 1.57 µM (inactive)

CC(=O)O[C@H]1[C@H](OC(=O)CC(C)(O)CC(=O)O)C[C@]2(C)C3=C(CCC2C1(C)C)[C@]1(C)CC[C@H]([C@H]2CC[C@H](C(C)(C)O)OC2O)[C@@]1(C)[C@@H](O)C3 (stereo partly drawn)
GI50 [1]: 19.4 µM (inactive) | GI50 [2]: 17.7 µM (inactive) | GI50 [4]: 17.3 µM (inactive) | GI50 [5]: 18.1 µM (inactive) | GI50 [6]: 19.4 µM (inactive) | GI50 [7]: 32.4 µM (inactive) | GI50 [8]: 17.2 µM | GI50 [9]: 16.9 µM (inactive) | GI50 [10]: 16.9 µM (inactive) | GI50 [12]: 17.2 µM (inactive) | GI50 [13]: 19.7 µM (inactive) | GI50 [14]: 14.1 µM (inactive) | GI50 [15]: 17.5 µM (inactive) | GI50 [16]: 19 µM (inactive) | GI50 [17]: > 100 µM (inactive) | GI50 [18]: 16.3 µM (inactive) | GI50 [19]: 18.7 µM (inactive) | GI50 [20]: 13.1 µM (inactive) | GI50 [21]: 16.9 µM (inactive) | GI50 [22]: 16.6 µM (inactive) | GI50 [23]: 19.1 µM (inactive) | GI50 [24]: 17.4 µM (inactive) | GI50 [25]: 15.3 µM (inactive) | GI50 [26]: 16.7 µM (inactive) | GI50 [27]: 25.6 µM (inactive) | GI50 [28]: 18.4 µM (inactive) | GI50 [29]: 15.1 µM (inactive) | GI50 [31]: 15.8 µM (inactive) | GI50 [32]: 20.9 µM (inactive) | GI50 [33]: 30.9 µM (inactive) | GI50 [34]: 25.8 µM (inactive) | GI50 [35]: 20.9 µM (inactive) | GI50 [36]: 19.7 µM (inactive) | GI50 [37]: 14.9 µM (inactive) | GI50 [38]: 26.2 µM (inactive) | GI50 [39]: 23.8 µM (inactive) | GI50 [40]: 16.1 µM (inactive) | GI50 [41]: 12.9 µM (inactive) | GI50 [42]: 19.8 µM (inactive) | GI50 [43]: 18.8 µM (inactive) | GI50 [44]: 18.8 µM (inactive) | GI50 [45]: 18.5 µM (inactive) | GI50 [46]: 22 µM (inactive) | GI50 [58]: 23.7 µM (inactive) | GI50 [47]: 18.3 µM (inactive) | GI50 [48]: 16 µM (inactive) | GI50 [50]: 24 µM (inactive) | GI50 [51]: 17.1 µM (inactive) | GI50 [52]: 20.7 µM (inactive) | GI50 [53]: 15.8 µM (inactive) | GI50 [54]: 17.8 µM (inactive) | GI50 [55]: 16.3 µM (inactive) | GI50 [56]: 18.3 µM (inactive)

O=C(N/N=C\c1cccc2ccccc12)Nc1cccc2ccccc12
GI50 [1]: 27.3 µM (inactive) | GI50 [2]: 4.32 µM (inactive) | GI50 [3]: 6.61 µM (inactive) | GI50 [4]: > 100 µM (inactive) | GI50 [5]: 3.84 µM (inactive) | GI50 [7]: 44.1 µM (inactive) | GI50 [8]: 5.73 µM | GI50 [10]: 25.7 µM (inactive) | GI50 [11]: 14.1 µM (inactive) | GI50 [12]: 13.1 µM (inactive) | GI50 [13]: 11 µM (inactive) | GI50 [14]: 10.6 µM (inactive) | GI50 [15]: 41.9 µM (inactive) | GI50 [16]: 4.49 µM (inactive) | GI50 [17]: > 100 µM (inactive) | GI50 [18]: 4.17 µM (inactive) | GI50 [19]: 32.4 µM (inactive) | GI50 [20]: 76.9 µM (inactive) | GI50 [21]: 32.9 µM (inactive) | GI50 [22]: 23.7 µM (inactive) | GI50 [23]: 3.95 µM (inactive) | GI50 [24]: 84.7 µM (inactive) | GI50 [59]: 18.6 µM (inactive) | GI50 [25]: 5.43 µM (inactive) | GI50 [27]: 3.29 µM (inactive) | GI50 [28]: 11.7 µM (inactive) | GI50 [29]: 27.7 µM (inactive) | GI50 [30]: 16.9 µM (inactive) | GI50 [31]: 23.2 µM (inactive) | GI50 [33]: 19.9 µM (inactive) | GI50 [34]: > 100 µM (inactive) | GI50 [35]: 65.9 µM (inactive) | GI50 [36]: > 10 µM (inactive) | GI50 [37]: 16 µM (inactive) | GI50 [38]: 3.17 µM (inactive) | GI50 [39]: 49.4 µM (inactive) | GI50 [41]: 15.7 µM (inactive) | GI50 [42]: 11.4 µM (inactive) | GI50 [43]: 28.8 µM (inactive) | GI50 [44]: 16.4 µM (inactive) | GI50 [45]: 22.9 µM (inactive) | GI50 [46]: 18.2 µM (inactive) | GI50 [58]: 35.2 µM (inactive) | GI50 [47]: 26.9 µM (inactive) | GI50 [48]: 43 µM (inactive) | GI50 [49]: 63.4 µM (inactive) | GI50 [50]: 7.8 µM (inactive) | GI50 [51]: 25.9 µM (inactive) | GI50 [52]: 13.9 µM (inactive) | GI50 [53]: 33.7 µM (inactive) | GI50 [54]: 28.8 µM (inactive) | GI50 [55]: 7.11 µM (inactive) | GI50 [57]: 10.7 µM (inactive)
